The text below walks through data of PMC3267017, “Design, synthesis and in vitro evaluation of novel bivalent S-adenosylmethionine analogues” (Bioorganic & Medicinal Chemistry Letters, 2012).

Where two headings read alike, the source gives them in different places.

Test [1] has as its target T1, MetJ dimer–DNA complex (F-metC) (Escherichia coli, UniProt P0A8U6). Details: method as in PMID 19194573. The following applies: monovalent ligand 4, 2 mM; F-metC 10 nM; read-out: EC50, concentration of MetJ monomer required to promote half-maximal formation of its complex with the F-metC DNA; cited from earlier work.
Test [2] addresses T1, MetJ dimer–DNA complex (F-metC). Briefly: Fluorescence anisotropy assay: MetJ titrated into F-metC DNA and ligand, MetJ dimer–DNA complex formation. Format: binding. The following applies: for EC50: F-metC 10 nM, average of three titrations, read-out: EC50, concentration of MetJ monomer required to promote half-maximal formation of its complex with the F-metC DNA. An excerpt:
A fluorescence anisotropy-based binding assay was used to compare the relative ability of SAM analogues to promote MetJ dimer–DNA complex formation. Since SAM has low affinity for MetJ in the absence of DNA,[8,13] measurements were made in the presence of the DNA fragment F-metC, a fluorescently-labeled analogue of the shortest naturally occurring operator sequence, metC.[14] Titration of MetJ into a solution containing fixed concentrations of F-metC and ligand allows the change in anisotropy related to ternary complex formation to be measured (Fig. 5).
Figure 5 Cartoon illustrating the fluorescence anisotropy assay. The SAM molecules promote the formation of a SAM–F-metC–protein complex, with two MetJ dimers bound to the 18 base-pair DNA duplex.
The half-maximal concentration of MetJ, EC50, required to promote complex formation was determined for each ligand. […] The monovalent ligands 11 and 12 (2 mM) and the bivalent ligands 9 and 10 (1 mM) all promoted the formation of the MetJ–DNA complex (Table 1). […] The unquaternised bivalent ligands 9a–e (1 mM) promoted complex formation up to about threefold more effectively than the corresponding monovalent analogue 11. Similarly, the quaternised bivalent ligands 10a and 10b promoted, respectively, complex formation 2.4- and 3.6-fold more effectively than the quaternised monovalent analogue 12.
Analysis of novel SAM analogues binding to MetJ in the presence of operator DNA was carried out using fluorescence anisotropy. Fluorescence anisotropy experiments were performed on a Spex Fluorolog Tau spectrofluorometer (HORIBA Jobin Yvon) controlled by Datamax software. The excitation and emission wavelengths were set to 488 nm and 517 nm respectively. Slit widths were set to 5 nm and all experiments were carried out at 19 °C. The detector integration time was 5 seconds and three readings were taken of each sample to obtain an average anisotropy. Free anisotropy values were 0.051-0.060. Increase in fluorescence anisotropy was observed upon titration of MetJ into a solution of F-metC (10 nM) with and without ligand ([…]) in TK buffer pH 7.6 (50 mM Trizma hydrochloride pH 7.6, 100 mM KCl) with a total starting volume of 200 µL. […] The final DMSO concentration was 2% or less. After each addition, the sample was mixed with a pipette and left to equilibrate for five minutes before the fluorescence anisotropy readings were acquired. The intensity of linear and perpendicular light, compared to the excitation light is measured experimentally and the anisotropy was calculated using the following equation:‖
The data was fitted to a sigmoidal growth logistic model using the following equation: […]
Where A1 refers to the initial value, A2 refers to the final value, x0 refers to the centre and p is a value relating to the slope of the transition. Errors refer the standard deviation of three titration repeats. An arbitrary weighting function with the following equation was employed: […]
For orientation: Fluorescence polarisation rises when a labelled molecule tumbles more slowly, as on binding a larger partner.

T1 sequence (P0A8U6 2-105, one chain of several): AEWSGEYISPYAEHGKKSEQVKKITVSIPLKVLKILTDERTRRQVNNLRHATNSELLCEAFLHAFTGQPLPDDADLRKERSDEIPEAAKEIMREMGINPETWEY

Turning to `CCCNC(=O)CCCN(C)C[C@H]1O[C@@H](n2cnc3c(N)ncnc32)[C@H](O)[C@@H]1O` [Compound 4], the EC50 in test [1] was 1000 ± 100 nM.

`CN(CC[C@H](N)C(=O)NCC#CC#CCNC(=O)[C@@H](N)CCN(C)C[C@H]1O[C@@H](n2cnc3c(N)ncnc32)[C@H](O)[C@@H]1O)C[C@H]1O[C@@H](n2cnc3c(N)ncnc32)[C@H](O)[C@@H]1O` [Compound 9e, N,N′-(Hexa-2,4-diyne-1,6-diyl)bis{(2′S)-2′-amino-4′-[5′′-deoxy-5′′-(methylamino)-adenosyl]butanamide}]: in test [2] (bivalent ligand 1 mM, DMSO 2%), the EC50 worked out at 111 ± 5 nM. The “Fold-improvement over monovalent control 11” value in test [2] (unquaternised bivalent ligand 1 mM vs 11 at 2 mM) is given as 1.1-fold. For `C[N+](C)(CCCC(=O)NCCCCCCNC(=O)CCC[N+](C)(C)C[C@H]1O[C@@H](n2cnc3c(N)ncnc32)[C@H](O)[C@@H]1O)C[C@H]1O[C@@H](n2cnc3c(N)ncnc32)[C@H](O)[C@@H]1O.[I-].[I-]` [Compound 19d, N,N′-Dimethyl-N,N′-di-[5′-deoxy-5′-N-methyl-N′-(4-butyryl)-adenosine]-1,6-diaminohexane diiodide], in test [2] (quaternised ligands 2 mM), the “Fold-improvement over monovalent control 5” value is 2.9-fold and the EC50 stood at 51 ± 2 nM. Regarding `CN(CCCC(=O)NCCCCn1nnc2c1CCCCCC2OCCNC(=O)CCCN(C)C[C@H]1O[C@@H](n2cnc3c(N)ncnc32)[C@H](O)[C@@H]1O)C[C@H]1O[C@@H](n2cnc3c(N)ncnc32)[C@H](O)[C@@H]1O` (stereo partly drawn) [Compound 15b, 4-((Adenosyl)(methyl)amino)-N-(2-(1-(4-(4-((adenosyl) (methyl)amino)butanamido)butyl)-4,5,6,7,8,9-hexahydro-1H-cycloocta[d][1,2,3]triazol-4-yloxy)ethyl)butanamide and 4-(-((adenosyl)(methyl)amino)-N-(2-(1-(4-(4-(-((adenosyl)(methyl)amino)butanamido)butyl)-4,5,6,7,8,9-hexahydro-1H-cycloocta[d][1,2,3]triazol-9-yloxy)ethyl)butanamide], the EC50 in test [2] (unquaternised ligands 2 mM) is 76 ± 2 nM.
